A value given as a limit tells only on which side of the number the result lay.

In data set [1] the test system is TPA-induced edema in SENCAR mouse ears. Put plainly: TPA-induced ear edema. It counts as in vivo, SENCAR mice. As to the method:
FIG. 3. Effect of CAPE on TPA-induced PMN infiltration and edema in SENCAR mouse ears. These were paired experiments, in which both ears of each mouse (8-9/group) were treated with 0.4 nmol TPA±CAPE in 20 μl acetone, and the mice were sacrificed 5 h later. (A) One ear was frozen for subsequent determination of MPO (a measure of PMN infiltration). (B) A punch (6 mm diameter) was taken from the second ear and weighed to measure edematous response (weight of sample minus weight of control). (A) Ears of each group (7-9/group) were separately minced and homogenized under different conditions as described in the "Experimental Details" Section, infra. MPO was determined in duplicate. MPO was undetectable in acetone controls and was 4.13±0.0 units/mg protein and 1.18±0.1 units/mg protein in the 2 homogenates of TPA-only-treated mice. CAPE-mediated inhibition was calculated versus the appropriate TPA-only sample, which was homogenized the same way. (B) Weights of ear punches (8-9/group, each determined separately). Acetone controls, 7.2±0.1 mg; TPA in acetone, 16.7±0.7 mg.
B) Edema Determination. Both ears of SENCAR mice (7-9 mice/group) were treated with 0.4 nmol TPA in 20 μl acetone alone or together with added 0.1 nmol, 0.3 nmol, or […] CAPE. Control mice were treated with acetone. The mice were sacrificed by cervical dislocation 5 h after treatment, and edema was measured on one mouse ear, while the second ear was immediately frozen and later analyzed for PMN infiltration by quantifying myeloperoxidase (MPO) (see below). Ear edema (increased weight of ear punches) was determined as previously described (24). Edema was expressed as mg/6 mm (diameter) ear punch±SE.

The test system of data set [2] is TPA-induced H2O2 production in mouse skin. Put plainly: TPA-induced H2O2 production in skin of SENCAR mice. It is filed as in vivo. As for the experimental part:
(§1) FIGS. 2A-2D. CAPE-mediated inhibition of TPA-induced oxidative processes in SENCAR mice. Mice were topically treated with 6.5 nmol CAPE 30 min prior to 6.5 nmol TPA, and this regimen was repeated 20 h later. Mice were sacrificed 1 h after the last treatment and the skin removed for determination of: (FIG. 2A) PMN infiltration (by measuring myeloperoxidase (MPO)); (FIG. 2B) H2 O2; (FIG. 2C) HMdUrd (HMdU); and (FIG. 2D) 8-OHdGua (8-OHdG), according to procedures described in the "Experimental Details" Section, infra. .quadrature., controls treated with acetone in place of CAPE and TPA; , treatment with acetone followed by TPA; .box-solid., treatment with CAPE followed by TPA. Results are expressed as mean ± SE (bars) from two experiments (2 mice/experiment) in the CAPE series. Data for acetone (ACT)- and TPA-treated mean values were collected from over 20 experiments.
(§2) C) MPO, H2 O2, and Oxidized DNA Bases. SENCAR mice were pretreated with CAPE for 30 min; then 6.5 nmol (4 μg) TPA/mouse topically applied to the dorsal skin. After 20 h, the CAPE and TPA treatment (1x) was repeated (2x treatment). One h after the second treatment, the mice were sacrificed by cervical dislocation, and 12.5-mm punches were obtained to be used separately for MPO and H2 O2 determinations. The remainder of the treated mouse skin or the combined skins from two mice were used for separation of epidermal cells. This was done by heating the skin at 55° C. for 30 s followed by rapid immersion into an ice-cold water bath (45). After the epidermis was scraped off, the presence of oxidized DNA base derivatives was measured in the epidermal DNA. All of these end points were analyzed by published procedures and are briefly described below.
Punches used for H2 O2 determination were immediately minced with scissors in cold 50 mM phosphate buffer, pH 7.0, containing 10 mM azide that is needed for inhibition of catalase. They were then homogenized, and centrifuged at 4° C. and the supernatants were stored at -80° C. for up to 1 week. H2 O2 was measured in freshly thawed supernatants using horseradish peroxidase-mediated oxidation of phenol red (21), and the results are expressed as nmol H2 O2 /cm^2 /10-min incubation. Although organic hydroperoxides also can be generated under these conditions (45), we find that H2 O2 constitutes a great majority of the oxidants generated because 60-85% of the oxidants produced are catalase inhibitable (21).
(§3) ^a Mice were treated as described in the legend to FIG. 2, except tha

Data set [3] deals with TPA-induced cataracts in eyes of rabbits. Briefly: TPA-induced cataracts in rabbits in vivo. Set-up: species or system white New Zealand rabbits. Conditions: daily TPA-containing drops, 6 week period.
Data set [4] deals with HMdUrd in epidermal DNA. Put plainly: TPA-induced HMdUrd formation in epidermal DNA of SENCAR mice. It is filed as in vivo. As to the method: as §1, §2
The epidermis was homogenized and lysed, and the proteins and RNA were removed by proteinase K and RNase digestions, respectively (20). The DNA was separated and purified on A.S.A.P. columns (Boehringer-Mannheim Biochemicals) and precipitated with isopropyl alcohol.
The pellet was then washed with 70% ethyl alcohol, dried, and dissolved in 10 mM Tris.cndot.HCl-100 mM NaCl buffer, pH 7.0, according to the manufacturer's procedure. The DNA was sheared and enzymatically digested to nucleosides, and the hydrolysates were separated by HPLC (Beckman, Model 344) on an ODS column (Altex, 1×25 cm; 5 μm particle size) (50). The fractions that eluted after 30 ml were combined (excluding those containing normal nucleosides) and dried. The oxidized nucleosides were detected by ^3 H-postlabeling with [^3 H]acetic anhydride, followed by HPLC analysis of ^3 H-containing acetates in the presence of marker acetates (50). The results are presented as the number of oxidized nucleosides/10^4 normal bases, unless otherwise stated.
as §3

Data set [5] deals with normal tissue. The note with it: cited from earlier work.
Data set [6] concerns NIH 10T1/2, Ltk^- and rat 6 cells transformed with T24 oncogene. The note with it: cited from earlier work.
Setting [7] is: CAPE 6.5 nmol, TPA 6.5 nmol, 2x.

Take `CCCCCCCCCCCCCC(=O)O[C@@H]1[C@@H](C)[C@@]2(O)[C@@H](C=C(CO)C[C@]3(O)C(=O)C(C)=C[C@@H]23)[C@@H]2C(C)(C)[C@]12OC(C)=O` [TPA, 12-O-tetradecanoylphorbol-13-acetate]: the “weight of ear punches” value in data set [1] (TPA 0.4 nmol in acetone, 5 h, 6 mm punch) is 16.7 ± 0.7 mg. This molecule displayed an H2O2 in data set [2] (TPA alone, 6.5 nmol, SE 0.7 on next line) of 31.5 nmol/cm^2 skin. For the same molecule, the “alteration in lens transparency (in words)” value in data set [3] was “failed to induce any visible alteration in the transparency of the lenses”. Also, the “HMdUrd/10^4 bases” value in data set [4] (TPA alone, 6.5 nmol, SE 6.4 on next line) is recorded as 39.4 /10^4 bases.

Turning to `O=C(/C=C/c1ccc(O)c(O)c1)OCCc1ccccc1` [CAPE, Caffeic acid phenethyl ester], the “orders of magnitude higher CAPE dose needed for similar inhibition of edema vs PMN infiltration” value in data set [1] (1 μmol vs 0.1 nmol CAPE/ear) was 4 orders of magnitude. The “inhibition of TPA-induced ear edema (in words)” value in data set [1] (CAPE 1 μmol/ear, TPA 0.4 nmol/ear) was “inhibits”. The “fold higher CAPE dose required to comparably inhibit ear edema versus PMN infiltration in skin” value in data set [1] (relative to 6.5 nmol CAPE, same mouse strain, (76)) is recorded as more than 100 fold. Further, the H2O2 in data set [2] (CAPE 6.5 nmol then TPA 6.5 nmol, 2x, (5 experiments), SE 2.2 on next line) stood at 15.7 nmol/cm^2 skin; in data set [2] (CAPE 650 nmol then TPA 6.5 nmol, 2x, (5 experiments), SE 0.6 on next line), 11.6 nmol/cm^2 skin. The “inhibition of TPA-induced H2O2 formation” value in data set [2] (CAPE 6.5 nmol, TPA 6.5 nmol, 2x, SENCAR mouse skin) amounted to 86%. Also, in data set [2] (CAPE 650 nmol/treatment vs 6.5 nmol), the “H2O2 levels at high dose (in words)” value was “further decreased”. Also, the “toxicity to normal tissue (in words)” value in data set [5] is recorded as “not toxic to normal tissue”. The “growth inhibition (in words)” value in data set [6] is “inhibited”. Besides, the “HMdUrd/10^4 bases” value in data set [4] (CAPE 6.5 nmol then TPA 6.5 nmol, 2x, (2 experiments), SE 0.6 on next line) is 13.1 /10^4 bases; in data set [4] (CAPE 650 nmol then TPA 6.5 nmol, 2x, (2 experiments), SE 10.5 on next line), 30.5 /10^4 bases. In data set [4] (setting [7]), the “HMdUrd levels (in words)” value is “below the acetone/acetone controls”. In addition, the “decline of HMdUrd formation” value in data set [4] (setting [7]) came to 115%.

Source of the values: patent US5591773A, “Inhibition of cataract formation, diseases resulting from oxidative stress, and HIV replication by caffeic acid esters” (priority 1994, dated 1997).
